The values that follow come from patent publication US6800645B1, “Substituted azabicyclic compounds” (Aventis Pharma Limited, priority 1996, dated 2004).

The structures appear in SMILES notation.

The melting point is the temperature of the solid-liquid transition. As for `COCc1nc2c(OC)ccc(C(O)(Cc3ccncc3)Cc3ccncc3)c2[nH]1` [Example 5, 1,3-bis-(4-pyridyl)-2-(7-methoxy-2-methoxymethyl-3H-benzimidazol-4-yl)-propan-2-ol], the melting point was 210 °C (dec.).

On to `Cc1ccc(S(=O)(=O)n2cc(C=O)c3ccc(C(=O)Nc4c(Cl)cncc4Cl)cc32)cc1` [Example 17, N-(3,5-Dichloro-pyridin-4-yl)-3-formyl-1-(toluene-4-sulphonyl)-1H-indole-6-carboxamide], for which the melting point is 245 °C.

`COc1ccc(Cn2cc(C)c3ccc(C(=O)c4ccccc4)cc32)cc1` [Example 24, [1-(4-Methoxy-benzyl)-3-methyl-1H-indol-6-yl]-phenyl methanone]: the melting point lay in the range of 146 to 147 °C.

As to `COCc1nc2c(OC)ccc(C(=O)Cc3ccncc3)c2[nH]1` [Example 4, 1-(7-Methoxy-2-methoxymethyl-3H-benzimidazol-4-yl)-2-(4-pyridyl)ethanone], the melting point was 218 to 220 °C (dec.).
